Experiments:
[1] = target: T1, RhaS(163-278) (RhaS DNA-binding domain) (Escherichia coli, UniProt P09377); assay: In vivo dose-response, rhaB-lacZ fusion activated by RhaS(163-278) (RhaS-DBD); format: cell-based, E. coli
T1 construct: expressed in transfected cells; host or cells: E. coli SME3635 (rhaB-lacZ, pHG165 expressing RhaS(163-278))
Description: For dose-response studies, a rhaB-lacZ reporter strain was designed that allowed IPTG induction of RhaS or RhaS(163-278) expression from pHG165 (and thus rhaB-lacZ expression). The strain was constructed by introducing malP::lacIq into SME3000 via phage P1vir-mediated generalized transduction. First, SME3000 was transduced with Δcrp-3 zhc-511::Tn10 from SME1403, selecting for tetracycline resistance and screening for sorbitol deficiency (indicating Δcrp) using MacConkey sorbitol. SME3000 Acrp-3 zhc-511::Tn10 was transduced with crp^+ malP::lacI^q from SG22166, selecting for growth on minimal sorbitol and screening for maltose deficiency (indicating malP::lacI^q) using MacConkey maltose. […]
The top hit identified in the screen was 1-ethyl-4-(nitromethyl)-3-quinolin-2-yl-4H-quinoline, Compound 2. […] Lysis/ONPG buffer (50 μL, as in Primary Screen) was added to each well and the plate was immediately placed into a PowerWave XS plate reader (BioTek Instruments, Inc., Winooski, Vt.), set to read the OD420 of each well every 15 min for 4 hr. […] Due to differences in kinetics of lacZ reporter expression, the rhaB-lacZ strains were analyzed at 4 hours and the hts-lacZ strain was analyzed at 1 hr. Percent activity was calculated for each condition as described above, using the single time point with appropriate OD420 levels for each strain. […]

[2] = system: human epithelial cells (HeLa); assay: Alamar Blue [resazurin] metabolic activity of tissue culture cells used in invasion assays; format: cell-based
Description: We expect that Compound 1 can impact host cell interaction but have little or no effect on growth rate of Shigella, based on our results with non-pathogenic E. coli strains.

[3] = system: Shigella; assay: Shigella growth; format: cell-based, S. flexneri
[4] = system: icsB; assay: Shigella gene expression qRT-PCR, icsB; format: cell-based, S. flexneri; conditions: for Average ΔΔCt / Ct / RQ (2^−ΔΔCt) / ΔΔCt^1 (normalized to gapA) / ΔΔCt^2 (normalized to rrsA): icsB, example data
Description: Real-time quantitative reverse transcription PCR (qRT-PCR) was performed to test the effects of SE-1 on the expression of the VirF regulated genes virB, icsA, icsB and ipaB. The gapA and rrsA transcripts were used as internal controls. These are constitutively expressed Shigella genes commonly used to normalize mRNA levels. S. flexneri strain SME4331, which carries a null mutation in ipgD (ipgD), was grown at 30° C. overnight in TSB with ampicillin, diluted into the same medium to an OD600 of ˜0.1, and 1 ml aliquots further grown at 30° C. (DMSO only) or at 37° C. (SE-1 at 20 or 40 μM, or DMSO only, all 0.3% DMSO). Cells were grown to an OD600 of 1.0 (˜2.5 h) and RNA was isolated using an RNeasy MiniElute Cleanup Kit (Qiagen, Germantown, Md.), with DNA contamination eliminated using a Turbo DNase Kit (Ambion, Austin, Tex.). Complementary DNA (cDNA) was synthesized by random priming using a cDNA Reverse Transcription Kit (Applied Biosystems, Foster City, Calif.). Primers were tested for PCR specificity using genomic DNA template to ensure a single amplicon of the expected size for each primer pair, and validated using 5-fold dilutions of cDNA (2000 to 0.0256 ng) to ensure a linear plot of cycle threshold (Ct) versus cDNA concentration. Validated primer sets were used to test mRNA profiles in reactions that contained 10 ng of cDNA, 10 μl of SYBR green master mix (Applied Biosystems), specific primers (0.5 μM each) and water to a final volume of 20 μl, using a Step One Plus Real-Time PCR System (Applied Biosystems). The data was analyzed using the 2^−ΔΔCt method, and also by Applied Biosystems real-time analysis software. […] In brief, ΔΔCt values [ΔΔCt=(Ct,Target−Ct,Internal Control)SE-1−(Ct,Target−Ct,Internal Control)no SE-1] were separately obtained for each sample relative to two internal controls, gapA and rrsA. The ΔΔCt values relative to the two internal controls for each sample were averaged and then used to calculate the relative expression levels (2^−ΔΔCt). As a control, we also normalized each internal control to the other internal control. Control reactions used templates generated without reverse transcriptase to ensure low genomic DNA contamination. To ensure that products were not likely to be due to primer dimer artifacts, additional control samples were performed in which reaction mixtures contained primers alone (no template).

T1 sequence (P09377 163-278): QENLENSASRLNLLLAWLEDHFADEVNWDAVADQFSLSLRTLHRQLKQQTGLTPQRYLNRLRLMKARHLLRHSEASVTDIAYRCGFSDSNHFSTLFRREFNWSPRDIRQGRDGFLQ

CCCCN1C=C(c2ccc3ccccc3n2)C(C[N+](=O)[O-])c2ccccc21 (centres unmarked) [Compound 1, 1-butyl-4-(nitromethyl)-3-quinolin-2-yl-4H-quinoline]
inhibition of RhaS(163-278)-activated expression ([1]; RhaS-DBD): fully inhibit expression | IC50 ([1]; RhaS-DBD (SME3635), read-out: IC50, rhaB-lacZ activation by RhaS(163-278)): ~10 µM | metabolic activity of the tissue culture cells [2]: did not have any effect | growth of S. flexneri samples ([3]; 80 μM SE-1, virB-lacZ strain): exhibited growth defects | decrease in the Shigella growth rate ([3]; concentrations up to 40 μM, SME4331): no detectable decrease | Shigella growth rate ([3]; strain M90T, invasion study with human epithelial cells): not the Shigella growth rate | reduction of icsB expression ([4]; 40 μM SE-1, P<0.05): two-fold reduction | Average ΔΔCt ([4]; SE-1 20 μM): −0.06 | Ct ([4]; SE-1 20 μM): 26.25 | RQ (2^−ΔΔCt) ([4]; SE-1 20 μM): 1.04 | ΔΔCt^1 (normalized to gapA) ([4]; SE-1 20 μM): −0.56 | ΔΔCt^2 (normalized to rrsA) ([4]; SE-1 20 μM): 0.44 | Average ΔΔCt ([4]; SE-1 40 μM): 1.14 | Ct ([4]; SE-1 40 μM): 27.04 | RQ (2^−ΔΔCt) ([4]; SE-1 40 μM): 0.45 | ΔΔCt^1 (normalized to gapA) ([4]; SE-1 40 μM): 0.80 | ΔΔCt^2 (normalized to rrsA) ([4]; SE-1 40 μM): 1.49

Reference: US20140088144A1, “INHIBITING MICROBIAL INFECTIONS” (THE UNIVERSITY OF KANSAS, priority 2012, published 2014)
